Assay results as given in patent publication US20260007613A1, “LONG-ACTING LOW-TOXICITY NOVEL CATIONIC LIPID COMPOUNDS AND COMPOSITION THEREOF” (BEIJING YOUCAREKECHUANG PHARMACEUTICAL TECHNOLOGY CO., LTD., priority 2023, published 2026).
Where “and” joins values, the source holds several entries; their conditions need not be identical. Equal entries are not always repeated.

Tests used:
liver = test: Distribution of liposomes in mice: protein expression in the liver (live imaging); assay type: in vivo; details: at 6 h, intramuscular injection
Method: The LNP formulation containing […] Fluc-mRNA was injected intramuscularly into female BALB/C mice aged 4 to 6 weeks old and weighed 17 to 19 g, and the mice were intraperitoneally injected with fluorescent imaging substrate at specific time points after administration (6 h, 24 h, 48 h and 7 d), where the mice were free to move for 5 minutes, and then the average radiation intensity (corresponding to fluorescence expression intensity) of the protein expression of the mRNA carried by the LNP in the mice was detected by the IVIS Spectrum small animal live imaging device.
At 24 h, the LNP formulations prepared from all compounds had been metabolized in the liver and had no protein expression.

293T cells [1] = test: Fluorescent detection of Fluc-mRNA (cell transfection efficiency of LNP formulations); assay type: cell-based
Outline: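 Transfection read-out: IVIS imaging after […], 24 h after adding LNPs (lipid molar ratio 49:10:39.5:1.5 cationic/neutral/structured/polymer-lipid; […] Fluc-mRNA). Adherent 293T cells were seeded overnight at 10,000 per well beforehand.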

293T cells [2] = test: Cell survival rate determination (CCK-8); assay type: cell-based
Outline: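 Readout was CCK-8 absorbance (450 nm, 1 h) taken after a 24 h exposure of overnight-adhered 293T cells (10,000 per well, 96-well) to Lipofectamine 3000 or to LNPs carrying Fluc-mRNA, lipid molar ratio 49:10:39.5:1.5 cationic/neutral/structured/polymer-conjugated.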

[3] = Particle size and polydispersity index (PDI) of lipid nanoparticles by dynamic light scattering; assay type: physicochemical; details: LNP formulation prepared from the cationic lipid, 25° C.
Method: The particle size and polydispersity index (PDI) were determined by dynamic light scattering using Malvern laser particle size analyzer.
10 μL of the liposome solution was weighed, diluted to 1 mL with RNase-free deionized water, and added to the sample pool. Each sample was measured in triplicate. The measurement conditions were: […] scattering angle, and 25° C.

female BALB/C mice = test: Live imaging in mice: protein expression of Fluc-mRNA delivered by LNP formulations; assay type: in vivo; details: for average radiation intensity, times that of ALC-0315: comparator ALC-0315; for average radiation intensity, times that of HHMA: comparator HHMA; for average radiation intensity, times that of SM-102: comparator SM-102; for expression of mRNA in mice, times that of YK-302: comparator YK-302; for expression amount, times that of YK-309: comparator YK-309; for expression amount, times that of YK-313: comparator YK-313; for expression amount, times that of YK-321: comparator YK-321; for average radiation intensity, times that of compound 21: comparator compound 21; for average radiation intensity, times that of compound 23: comparator compound 23
Outline: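 Female BALB/C mice (4-6 weeks, 17-19 g) received LNP-formulated Fluc-mRNA […] intramuscularly. At 6 h, 24 h, 48 h and 7 d, luciferase substrate given intraperitoneally, and after 5 min average radiance measured by IVIS whole-body imaging.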

SMILES: CCCCCCCCCCCOC(=O)CCCCCN(CCCC(=O)OCCCC(CCCCCCCCCC)CCCCCCCCCC)C[C@H](O)CN(CC)CCO [YK-310]
- protein expression in the liver (liver): no protein expression in the liver
- Relative light unit (RLU) (293T cells [1]; LNP formulation of Fluc-mRNA, 96-well plate, 24 hours): 25797040 RLU
- Multiples (YK-305) (293T cells [1]; RLU of YK-305 / RLU of the lipid of the line): 1.06
- Multiples (YK-310) (293T cells [1]; RLU of YK-310 / RLU of the lipid of the line): 1.00
- Multiples (YK-312) (293T cells [1]; RLU of YK-312 / RLU of the lipid of the line): 0.78
- Multiples (YK-318) (293T cells [1]; RLU of YK-318 / RLU of the lipid of the line, Tables 5, 7, 11): 0.43
- Multiples (YK-319) (293T cells [1]; RLU of YK-319 / RLU of the lipid of the line, Tables 5, 7, 11): 0.95
- Ratio relative to SM-102 (293T cells [1]; RLU of the lipid / RLU of SM-102, times that of SM-102): 16.08
- cell transfection efficiency, times that of ALC-0315 (293T cells [1]; comparator ALC-0315): 12.69 times
- cell transfection efficiency, times that of HHMA (293T cells [1]; comparator HHMA): 12.86 times
- cell transfection efficiency, times that of Lipofectamine 3000 (293T cells [1]; comparator Lipofectamine 3000): 21.76 times
- cell transfection efficiency, times that of YK-009 (293T cells [1]; comparator YK-009): 5.04 times
- cell transfection efficiency, times that of YK-301 (293T cells [1]; comparator YK-301): 30.62 times
- cell transfection efficiency, times that of YK-302 (293T cells [1]; comparator YK-302): 928.69 times
- cell transfection efficiency, times that of YK-303 (293T cells [1]; comparator YK-303): 41.19 times
- cell transfection efficiency, times that of YK-304 (293T cells [1]; comparator YK-304): ~1200 times and 1247.08 times
- cell transfection efficiency, times that of YK-306 (293T cells [1]; comparator YK-306): 11.74 times
- cell transfection efficiency, times that of YK-307 (293T cells [1]; comparator YK-307): 5.66 times
- cell transfection efficiency, times that of YK-308 (293T cells [1]; comparator YK-308): 5.12 times
- cell transfection efficiency, times that of YK-309 (293T cells [1]; comparator YK-309): ~200 times and 205.77 times
- cell transfection efficiency, times that of YK-311 (293T cells [1]; comparator YK-311): 13.14 times
- cell transfection efficiency, times that of YK-313 (293T cells [1]; comparator YK-313): 29.77 times
- cell transfection efficiency, times that of YK-314 (293T cells [1]; comparator YK-314): 47.12 times
- cell transfection efficiency, times that of YK-315 (293T cells [1]; comparator YK-315): 16.25 times
- cell transfection efficiency, times that of YK-316 (293T cells [1]; comparator YK-316): 5.36 times
- cell transfection efficiency, times that of YK-317 (293T cells [1]; comparator YK-317): 7.16 times
- cell transfection efficiency, times that of YK-320 (293T cells [1]; comparator YK-320): 9.54 times
- cell transfection efficiency, times that of YK-321 (293T cells [1]; comparator YK-321): 18.38 times
- cell transfection efficiency, times that of compound 21 (293T cells [1]; comparator compound 21): 18.01 times
- cell transfection efficiency, times that of compound 23 (293T cells [1]; comparator compound 23): 19.02 times
- Cell survival rate (%) (293T cells [2]; LNP formulation of Fluc-mRNA, 24 hours, CCK-8): 82.10%
- cell survival rate higher than ALC-0315 (293T cells [2]; difference of survival rates, comparator ALC-0315): 31.07% and ~30%
- cell survival rate higher than HHMA (293T cells [2]; difference of survival rates, comparator HHMA): 15.63% and ~15%
- cell survival rate higher than Lipofectamine 3000 (293T cells [2]; difference of survival rates, comparator Lipofectamine 3000): 57.09%
- cell survival rate higher than SM-102 (293T cells [2]; difference of survival rates, comparator SM-102): 12.65% and ~12%
- cell survival rate higher than YK-301 (293T cells [2]; difference of survival rates, comparator YK-301): 29.14%
- cell survival rate higher than YK-302 (293T cells [2]; difference of survival rates, comparator YK-302): 65.67% and ~65% and ~50%
- cell survival rate higher than YK-303 (293T cells [2]; difference of survival rates, comparator YK-303): 18.78%
- cell survival rate higher than YK-304 (293T cells [2]; difference of survival rates, comparator YK-304): 47.94%
- cell survival rate higher than YK-306 (293T cells [2]; difference of survival rates, comparator YK-306): 39.91%
- cell survival rate higher than YK-307 (293T cells [2]; difference of survival rates, comparator YK-307): 20.96%
- cell survival rate higher than YK-308 (293T cells [2]; difference of survival rates, comparator YK-308): 11.11%
- cell survival rate higher than YK-309 (293T cells [2]; difference of survival rates, comparator YK-309): 50.49%
- cell survival rate higher than YK-311 (293T cells [2]; difference of survival rates, comparator YK-311): 12.04%
- cell survival rate higher than YK-313 (293T cells [2]; difference of survival rates, comparator YK-313): 13.17%
- cell survival rate higher than YK-314 (293T cells [2]; difference of survival rates, comparator YK-314): 14.22%
- cell survival rate higher than YK-315 (293T cells [2]; difference of survival rates, comparator YK-315): 10.82%
- cell survival rate higher than YK-316 (293T cells [2]; difference of survival rates, comparator YK-316): 11.57%
- cell survival rate higher than YK-317 (293T cells [2]; difference of survival rates, comparator YK-317): 22.92% and ~20%
- cell survival rate higher than YK-320 (293T cells [2]; difference of survival rates, comparator YK-320): 11.03%
- cell survival rate higher than YK-321 (293T cells [2]; difference of survival rates, comparator YK-321): 9.76%
- cell survival rate higher than compound 21 (293T cells [2]; difference of survival rates, comparator compound 21): 11.89%
- cell survival rate higher than compound 23 (293T cells [2]; difference of survival rates, comparator compound 23): 10.60%
- PDI (%) [3]: 12.4%
- Particle size (nm) [3]: 192 nm
- average radiation intensity, times that of ALC-0315 (female BALB/C mice; 6 h): 10.56 times
- average radiation intensity, times that of HHMA (female BALB/C mice; 6 h): 14.02 times
- average radiation intensity, times that of SM-102 (female BALB/C mice; 6 h): 13.01 times
- expression of mRNA in mice, times that of YK-302 (female BALB/C mice; 6 h): 625.87 times
- expression amount, times that of YK-309 (female BALB/C mice; 6 h): 138.93 times
- expression amount, times that of YK-313 (female BALB/C mice; 6 h): 20.64 times
- expression amount, times that of YK-321 (female BALB/C mice; 6 h): 17.70 times
- average radiation intensity, times that of compound 21 (female BALB/C mice; 6 h): 14.95 times
- average radiation intensity, times that of compound 23 (female BALB/C mice; 6 h): 15.48 times
- average radiation intensity (female BALB/C mice; 6 h after intramuscular injection): 9125240
- average radiation intensity, times that of ALC-0315 (female BALB/C mice; 24 h): 15.50 times
- average radiation intensity, times that of HHMA (female BALB/C mice; 24 h): 24.61 times
- average radiation intensity, times that of SM-102 (female BALB/C mice; 24 h): 24.51 times
- expression of mRNA in mice, times that of YK-302 (female BALB/C mice; 24 h): 746.29 times
- expression amount, times that of YK-309 (female BALB/C mice; 24 h): 175.52 times
- expression amount, times that of YK-313 (female BALB/C mice; 24 h): 28.27 times
- expression amount, times that of YK-321 (female BALB/C mice; 24 h): 29.16 times and ~29 times
- average radiation intensity, times that of compound 21 (female BALB/C mice; 24 h): 26.88 times
- average radiation intensity, times that of compound 23 (female BALB/C mice; 24 h): 28.24 times
- average radiation intensity (female BALB/C mice; 24 h after intramuscular injection): 2952310
- average radiation intensity, times that of ALC-0315 (female BALB/C mice; 48 h): 24.64 times
- average radiation intensity, times that of HHMA (female BALB/C mice; 48 h): 30.13 times
- average radiation intensity, times that of SM-102 (female BALB/C mice; 48 h): 30.14 times
- expression of mRNA in mice, times that of YK-302 (female BALB/C mice; 48 h): 957.07 times
- expression amount, times that of YK-309 (female BALB/C mice; 48 h): 149.75 times
- expression amount, times that of YK-313 (female BALB/C mice; 48 h): 38.38 times
- expression amount, times that of YK-321 (female BALB/C mice; 48 h): 26.83 times
- average radiation intensity, times that of compound 21 (female BALB/C mice; 48 h): 31.67 times
- average radiation intensity, times that of compound 23 (female BALB/C mice; 48 h): 29.62 times
- average radiation intensity (female BALB/C mice; 48 h after intramuscular injection): 981000
- average radiation intensity, times that of ALC-0315 (female BALB/C mice; 7 d): 16.67 times
- average radiation intensity, times that of HHMA (female BALB/C mice; 7 d): 20.01 times
- average radiation intensity, times that of SM-102 (female BALB/C mice; 7 d): 17.74 times
- expression of mRNA in mice, times that of YK-302 (female BALB/C mice; 7 d): 305.89 times
- expression amount, times that of YK-309 (female BALB/C mice; 7 d): 93.52 times
- expression amount, times that of YK-313 (female BALB/C mice; 7 d): 36.31 times
- expression amount, times that of YK-321 (female BALB/C mice; 7 d): 17.84 times and ~17 times
- average radiation intensity, times that of compound 21 (female BALB/C mice; 7 d): 18.23 times
- average radiation intensity, times that of compound 23 (female BALB/C mice; 7 d): 18.82 times
- average radiation intensity (female BALB/C mice; 7 d after intramuscular injection): 117462
